Reference: US11667636B2, “Modulators of Mas-related G-protein receptor X2 and related products and methods” (Escient Pharmaceuticals, Inc., priority 2020, dated 2023)
pIC50: −log10 of the molar value.

Assays:
[1] = molecular target: T1, human MRGPRX2 (Homo sapiens, UniProt Q96LB1); experiment: MRGPRX2 Activity: IP-One HTRF antagonist assay in CHO cells stably expressing human MRGPRX2, versus Cortistatin-14; format: cell-based; conditions: versus 0.3 uM Cortistatin-14 agonist, IP-1 HTRF, read-out: MRGPR2 Antagonist Activity
T1 construct: expressed in transfected cells
T1 sequence (Q96LB1 1-330): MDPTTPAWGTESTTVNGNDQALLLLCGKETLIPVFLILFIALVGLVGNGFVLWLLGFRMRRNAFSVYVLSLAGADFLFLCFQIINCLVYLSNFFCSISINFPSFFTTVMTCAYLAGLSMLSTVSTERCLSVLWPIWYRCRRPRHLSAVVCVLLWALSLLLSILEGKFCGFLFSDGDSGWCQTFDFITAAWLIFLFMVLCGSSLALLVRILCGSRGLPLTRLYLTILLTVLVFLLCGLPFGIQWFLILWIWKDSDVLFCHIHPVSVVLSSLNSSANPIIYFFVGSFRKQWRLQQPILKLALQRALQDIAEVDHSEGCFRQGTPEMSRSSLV
Method in brief: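 CHO cells stably expressing human MRGPRX2 were given compound as a 10-point curve (30 uM top, 1:3) with 0.3 μM Cortistatin-14 in LiCl buffer, pH 8. Incubation was 1 hr at 37° C, then 1 hr at room temperature. IP-1 was read by HTRF ratio and fitted to IC50.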

[2] = tested on: Human LAD2 cells; experiment: Mast Cell Beta-Hexosaminidase Release Assay (Cortistatin-14 induced degranulation); format: cell-based; conditions: 500 nM Cortistatin-14, percent beta-hexosaminidase release, read-out: MRGPRX2 Antagonist Activity
Method: Human LAD2 cells (NIH) were maintained in an incubator at 37° C. with 5% CO2 and cultured in StemPro-34 serum-free media (Gibco 10639011) supplemented with 2 mM L-glutamine, 100 U/ml penicillin, […] streptomycin and 100 ng/ml SCF (Invitrogen PEP0860), at a concentration of 2-5×10^5 cells/mL, with hemidepletion every 1-2 weeks.
Cells were transferred to SCF-Free medium at 2.5×10^5 cells/mL and kept in an incubator overnight. On the day of the assay, cells were washed twice in Assay Buffer (final concentrations 10 mM HEPES, 137 mM NaCl, 5.6 mM D-glucose, 2.7 mM KCl, 1 mM MgCl, 1.8 mM CalCl2, 0.4 mM Na2HPO4.7H2O, 0.04% BSA, pH=7.4) and plated in a 96-well v-bottom plate at 20,000 cells per well in 80 μL Assay Buffer. Antagonist compounds solubilized at 10 mM in DMSO were diluted in Assay Buffer to 10× final desired concentrations as a 10-point curve (10 μM final top concentration with 1:3 serial dilutions) and 10 μL added per well. Plates were then incubated for 1 hour at 37° C. Agonists were diluted in Assay Buffer to 10× desired concentrations and 10 μL of the appropriate agonist added to each well. The final concentration of Cortistatin-14 (Tocris 3374) used in antagonist assays was 500 nM. Final concentrations of DMSO were kept consistent across the plate. Plates were then incubated in a warm air oven for 30 minutes at 37° C., followed by centrifugation at 4° C. for 5 minutes at 450×g. 50 μL supernatant from each well was then transferred to a 96-well flat bottom plate containing 100 μL substrate solution per well (3.5 mg/mL p-Nitrophenyl-N-acetyl-$-D-glucosaminide (Sigma 487052) in Citrate Buffer containing a final concentration of 40 mM Citric Acid, 20 mM Na2HPO4.7H2O, pH=4.5). To the cell pellets left in the remaining assay buffer, 150 μL 0.1% Triton-X-100 was then added to each well, resuspended by pipetting up and down, and 50 μL cell lysates transferred to a second 96-well flat bottom plate containing 100 μL substrate solution per well. Plates containing transferred supernatant and cell lysates were then incubated in a warm air oven for 90 minutes at 37° C. After incubation, 50 μL of 400 mM Glycine buffer (pH 10.7) was added into each well and the plate was read on a Molecular Devices SpectraMax iD5 plate reader (absorbance at 405 nm with reference filter at 620 nm). After background subtraction, the percentage degranulation (percent beta-hexosaminidase release) was calculated as 100×(supernatant values)/(supernatant+lysate values), followed by analysis using GraphPad Prism software to calculate an IC50 value for each compound.
The activity ranges are denoted as follows: “+++++” denotes antagonist activity <50 nM; “++++” denotes antagonist activity between 51 and 100 nM; “+++” denotes activity between 101 and 500 nM; “++” denotes activity between 501 and 1000 nM; and “+” denotes activity >1000 nM.

- pIC50 [1]: 6.30 to 7.00
- pIC50 [2]: > 7.30
Structure (SMILES): O=C(N[C@H]1CC[C@@H](Nc2cccc3sc(C(F)(F)F)cc23)CC1)c1ccc(F)cc1 [Example 1, 4-fluoro-N-((1s,4s)-4-((2-(trifluoromethyl)benzo[b]thiophen-4-yl)amino)cyclohexyl) benzamide]
